Source: patent US10416163B2, “Method and treatment of recurring endometrial cancer with an inhibitor of USP14” (Regents of the University of Minnesota, priority 2016, dated 2019)
Like-named read-outs stand apart in the source and are kept apart here.

Key:
[1] = test system: cisplatin resistant ovarian cancer cell lines HEY and OVCA-3 and primary cells from patients with recurrent and resistant disease; experiment: Cell viability (XTT) of chemoresistant ovarian cancer cells exposed to USP14 inhibitor; format: cell-based, human; conditions: increasing concentrations, 48 hours
Experimental: Inhibition of USP14 selectively kills ovarian cancer cell lines resistant to cisplatin and primary ovarian cancer cells derived from patients with recurrent and chemoresistant disease. Sensitivity to inhibition of USP14 was evaluated in exponentially growing human fibroblasts, in the exponentially growing cisplatin resistant ovarian cancer cell lines HEY and OVCA-3 and in two exponentially growing primary cells derived from patient with recurrent and resistant (to carboplatin) disease. Primary cells were obtained according to a method recently described in two manuscripts.

ovarian cancer cells = experiment: Active caspase-3 levels in ovarian cancer cells; format: cell-based; conditions: increasing concentrations
[2] = test system: HEC155 endometrial cancer cell line; experiment: Cell viability assay (WST-1), HEC155; format: cell-based; conditions: for IC50: HEC155, 48 hours exposure
Experimental: (§1) Cell viability was determined by 2,3-bis[2-methoxy-4-nitro-5-sulfophenyl]-2H-tetrazolium-5-carboxanilide inner salt assay as previously described. Briefly, cells were seeded at the concentration of 1.000 per well in 100 μL medium in 96-well plate and treated with the indicated concentrations of drugs. At the indicated time points, cells were incubated according to the manufacturer's protocol with the WST-1 labeling mixture for 2 hours. Formazan dye was quantified using a spectrophotometric plate reader to measure the absorbance at 450 nm (ELISA reader 190; Molecular Devices).
(§2) The next step was to investigate whether USP14 is a molecular target for endometrial cancer cells. To this end, the expression levels of USP14 in a panel of endometrial cancer cell lines including HEC155, EFE184 and ECC1 was first measured. These cells were chosen as they represent the most aggressive and most likely to recur endometrial cancer types. As shown in FIG. 4A (left panel), all cell lines tested expressed USP14 with HEC155 and ECC1 having the highest levels. Next. ECC1 and HEC155 endometrial cancer cells were exposed to increasing concentrations of the small-molecule inhibitor […] and the residual cell viability was measured after a period of 48 hours.
(§3) In the clinical setting, recurrent endometrial cancer is usually resistant to chemotherapy. Previous studies have reported that among endometrial cancer cell lines, HEC155 and ECC1 have the highest levels of LCAM, a marker for endometrial cancer recurrence. […] Thus, the IC50 levels for carboplatin treatment of HEC155 and ECC1 cells was measured.

[3] = test system: ECC1 endometrial cancer cell line; experiment: Cell viability assay (WST-1), ECC1; format: cell-based; conditions: for IC50: ECC1, 48 hours exposure
Experimental: as §1, §2, §3

[4] = test system: ubiquitin-dependent protein degradation in ECC1 cells; experiment: Western blot for accumulation of poly-ubiquitinated proteins, ECC1; format: cell-based
Experimental: (§4) Total cellular protein (10-20 μg) from each sample was separated by SDS-PAGE, transferred to PVDF membranes and subjected to Western blot analysis. Antibodies for Western blot analysis were obtained by the following commercial sources: anti-USP14 (Bethyl Laboratories), anti-ubiquitin (Santa Cruz Biotechnology), anti-β-actin (Sigma). Peroxidase-linked anti-mouse Immunoglobulin G and peroxidase-linked anti-rabbit Immunoglobulin G were from Amersham.
(§5) USP14 is a proteasome-associated deubiquitinating enzyme whose role is to remove ubiquitin molecules from targeted proteins prior to degradation by the 20S catalytic activities of the proteasome. […] Thus, the consequences of USP14 inhibition on ubiquitin-dependent protein degradation in endometrial cancer cells was investigated. To this end, ECC1 and HEC155 cells were exposed to 150 nM or 250 nM VLX1570, respectively, over a period of 24 hours and the effect on cellular protein ubiquitination was evaluated by Western blot analysis after 0, 2, 8 or 12 hours from drug exposure. […] Quantifications of the changes in high molecular weight ubiquitin species in each respective cell line, versus control, are given in FIGS. 5B and 5D (top panels).
(§6) Next, endometrial cancer cell lines were exposed to increasing concentrations of VLX1570 ([…] for ECC1 and HEC155, respectively) over a period of 24 hours. The effect on accumulation of poly-ubiquitinated proteins was evaluated by Western blot. […] Quantifications of the changes in high-molecular weight ubiquitin species in dose-dependent fashion are given in FIGS. 5B and 5D (bottom panels).

[5] = test system: ubiquitin-dependent protein degradation in HEC155 cells; experiment: Western blot for accumulation of poly-ubiquitinated proteins, HEC155; format: cell-based
Experimental: as §4, §5, §6

[6] = test system: HEC155 endometrial cancer cells; experiment: Cell cycle distribution by propidium iodide flow cytometry, HEC155; format: cell-based; conditions: HEC155, 300 nM, 24 hours
Experimental: (§7) Cell cycle status following treatment with drug or vehicle alone was determined via flow cytometry analysis. Specifically, cells were harvested at indicated time points and fixed in 70% ethanol on ice for 2 hours. Following washing with PBS, cells were stained with 0.1% (m/v) propidium iodide in PBS-T. Apoptosis was measured using antibodies against active Caspase-3 (BD Pharmingen) or Annexin V (BD Pharmingen) which were combined with propidium iodide staining (Sigma-Aldrich). For apoptosis assays, samples were fixed and stained according to manufacturer's instructions. Fluorescence was measured with a FACSCantoII flow cytometer (Becton Dickinson) and analyzed with FlowJo software.
(§8) The USP14 modulates levels of cell cycle regulatory proteins whose dysregulation is expected to affect the cell cycle. This is further supported by the findings showing a strong correlation between USP14 and Ki67 staining in clinical specimens of endometrial cancer. Thus, the hypothesis that inhibition of USP14 would result in endometrial cancer cells failing to progress through the cell cycle was tested. To this end, HEC155 and ECC1 endometrial cancer cells were incubated with the USP14 inhibitor VLX1570 over a period of 24 hours and the cell cycle status was analyzed by flow cytometry after staining with propidium iodide. […]

[7] = test system: ECC1 endometrial cancer cells; experiment: Cell cycle distribution by propidium iodide flow cytometry, ECC1; format: cell-based; conditions: ECC1, 300 nM, 24 hours
Experimental: as §7, §8

[8] = test system: ECC1 endometrial cancer cells; experiment: Apoptosis by flow cytometry (active caspase-3, Annexin V, propidium iodide), ECC1; format: cell-based
Experimental: as §7
(§9) Next, the fate of ECC1 and HEC155 endometrial cancer cells following VLX1570-induced cell cycle arrest was evaluated. Specifically, it was tested whether the reduction in cell viability following drug treatment is consistent with onset of apoptosis. The expression levels of active caspase-3 in control versus VLX1570 treated cells was measured. Importantly, caspase-3 is an active cell-death protease involved in the execution phase of apoptosis, where cells undergo morphological changes such as DNA fragmentation, chromatin condensation and apoptotic body formation.
(§10) Similarly, the fraction of cells taking up propidium iodide, a feature of both advanced apoptosis and necrosis, is elevated in […]. These findings support the hypothesis that pharmacological inhibition of USP14 triggers apoptosis in endometrial cancer cells.

[9] = test system: HEC155 endometrial cancer cells; experiment: Apoptosis by flow cytometry (active caspase-3, Annexin V, propidium iodide), HEC155; format: cell-based
Experimental: as §7, §9, §10

[10] = test system: COV362 ovarian cancer cells; experiment: Cell viability of sensitive and carboplatin-resistant COV362; format: cell-based
Experimental: (§11) FIG. 11. COV362 and ES-2 carboplatin-resistant clones. Residual cell viability of sensitive and resistant COV362 and ES-2 ovarian cancer cells exposed to the indicated concentrations of carboplatin over a period of 48 hours.
(§12) FIG. 12. Carboplatin resistant COV362 and ES-2 ovarian cancer cells are sensitive to USP14 inhibition. Residual cell viability of resistant COV362 and ES-2 ovarian cancer cells exposed to the indicated concentrations of the FDA approved USP14 inhibitor VLX1570 over a period of 48 hours. The structure of VLX1570 is:
(§13) Carboplatin-resistant ovarian cancer cell lines are sensitive to pharmacological inhibition of USP14. Two ovarian cancer cell lines, COV-362 and ES-2 were exposed to carboplatin according to the method described in FIG. 9 and the resulting USP14 overexpressing clones were subjected to cell viability assay to assess the extent of chemoresistance. […] Next, the sensitivity of COV362 and ES-2 resistant clones to the FDA approved USP14 inhibitor VLX1570 was determined.

[11] = test system: ES-2 ovarian cancer cells; experiment: Cell viability of sensitive and carboplatin-resistant ES-2; format: cell-based
Experimental: as §11, §12, §13

[12] = test system: ECC1 endometrial cancer cell line; experiment: Multi-step carboplatin chemoresistance model, ECC1; format: cell-based
Excerpt: USP14 is co-expressed with ETM makers during the multi-stage process leading to chemoresistance. Acquisition of aggressive phenotype and chemoresistance is a multi-stage process whereby the subpopulation of cells surviving drug treatment give rise to cells characterized by increased in migratory behavior, proliferation rate and chemoresistance via a transition accompanied by increase in stem cell and epithelial-mesenchymal transition (EMT) markers. This model was recapitulated in ECC1 endometrial cancer cell line and the temporal USP14 expression was evaluated during this multi-step process. Specifically. ECC1 cells were exposed to two rounds of carboplatin treatment (20 μM) over the period of two weeks. The first round resulted with approx. 60% of cell death. The second round resulted with approx. 90% of cell death. Consistent with what previously shown, the surviving population was characterized by giant, polyploidy, chemoresistant cells whose numbers remained similar over the course of the following two weeks. […] Next, the expression levels of USP14 and the EMT marker vimentin were evaluated in the initial population (chemosensitive tumor) and in two of the chemoresistant clones. USP14 overexpression is temporally associated to the expression of the EMT marker vimentin.

[13] = test system: carboplatin sensitive cancer cells; experiment: Multi-step carboplatin chemoresistance model in vitro (Example 2); format: cell-based; conditions: 10 μM, two rounds over two weeks
Experimental: Multi-step process leading to recurrence can be recapitulated in vitro and results with up-regulation of USP14. Carboplatin chemoresistance was recapitulated in vitro according to the model schematized in FIG. 9. Specifically, carboplatin sensitive cancer cells were exposed to two rounds of carboplatin treatment (10 μM) over the period of two weeks. The first round resulted with approx. 60% of cell death. The second round resulted with approx. 90% of cell death. This is consistent with the dramatic reduction in tumor burden in chemosensitive patients treated with neoadjuvant chemotherapy. […] As shown in FIG. 9 the chemotherapy surviving population was characterized by stem like giant, polyploidy, chemoresistant cells whose numbers remained similar over the course of the following two weeks. This population was the precursor of clones of cells that survived in presence of carboplatin. Strikingly, when the expression levels of USP14 and the […] marker vimentin were evaluated in the initial population (chemosensitive tumor) and in two of the chemoresistant clones isolated. USP14 overexpression is temporally associated to over-expression of the […] marker, vimentin.

[14] = read-out: IC50, inhibition of cell viability
[15] = read-out: IC50 for carboplatin, cell viability
[16] = ECC1, 20 μM, two rounds over two weeks

## O=C1/C(=C/c2ccc([N+](=O)[O-])cc2)CNC/C1=C\c1ccc([N+](=O)[O-])cc1 [RA-9, (3E, 5E)-3,5-bis(nitrobenzylidene)piperidin-4-one]
[1]
  effect on cell viability of chemoresistant ovarian cancer cells: killed chemoresistant ovarian cancer cells
Ovarian cancer cells
  Caspase-3 activation: activation of Caspase-3

## C=CC(=O)N1CC/C(=C\c2ccc(F)c([N+](=O)[O-])c2)C(=O)/C(=C/c2ccc(F)c([N+](=O)[O-])c2)C1 [VLX1570]
[2]; HEC155
  anti-proliferative concentration, times lower than that required for carboplatin: 500 times
[2]; [14]
  IC50: 0.182 µM
[3]; ECC1
  anti-proliferative concentration, times lower than that required for carboplatin: 800 times
[3]; [14]
  IC50: 0.118 µM
[4]; ECC1, 0-150 μM, 24 hours
  inhibition of ubiquitin-dependent protein degradation (dose course): dose-dependent inhibition of ubiquitin-dependent protein degradation
[4]; ECC1, 150 nM
  start of accumulation of poly-ubiquitinated proteins after drug exposure: two
[4]; ECC1, 150 nM, 0, 2, 8 or 12 hours
  accumulation of poly-ubiquitinated proteins (time course): dose-dependent accumulation of poly-ubiquitinated proteins
[5]; HEC155, 0-250 μM, 24 hours
  inhibition of ubiquitin-dependent protein degradation (dose course): dose-dependent inhibition of ubiquitin-dependent protein degradation
[5]; HEC155, 250 nM
  start of accumulation of poly-ubiquitinated proteins after drug exposure: two
[5]; HEC155, 250 nM, 0, 2, 8 or 12 hours
  accumulation of poly-ubiquitinated proteins (time course): dose-dependent accumulation of poly-ubiquitinated proteins
[6]
  percentage of cells in the G2/M phase versus controls: increase in the percentage of cells in the G2/M phase
[7]
  percentage of cells in the G2/M phase, treated versus control: nearly double
[8]; ECC1, 300 nM, 24 hours
  Annexin V staining cells: increase of Annexin V staining cells
  fraction of cells taking up propidium iodide: elevated
[8]; ECC1, 24 hours, versus mock
  levels of active caspase-3: increased levels of active caspase-3
[9]; HEC155, 300 nM, 24 hours
  Annexin V staining cells: increase of Annexin V staining cells
  fraction of cells taking up propidium iodide: elevated
[9]; HEC155, 24 hours, versus mock
  levels of active caspase-3: increased levels of active caspase-3
[10]; carboplatin-resistant COV362
  killing concentration, fold lower than the one required with carboplatin: approx. 10 fold
[10]; carboplatin-resistant COV362 clones, 48 hours, read-out: IC50, inhibition of cell viability
  IC50: 8.76 µM
[11]; carboplatin-resistant ES-2
  killing concentration, fold lower than the one required with carboplatin: approx. 10 fold
[11]; carboplatin-resistant ES-2 clones, 48 hours, read-out: IC50, inhibition of cell viability
  IC50: 7.11 µM

## N.N.O=C([O-])C1(C(=O)[O-])CCC1.[Pt+2] [carboplatin]
[2]; [15]
  IC50: 77.5 µM
[3]; [15]
  IC50: 97.6 µM
[12]; [16]
  cell death, first round of carboplatin treatment: approx. 60%
  cell death, second round of carboplatin treatment: approx. 90%
[12]; ECC1 chemoresistant clones
  IC50 of chemoresistant clones as compared to the initial population: > 3 fold
[13]
  cell death, first round of carboplatin treatment: approx. 60%
  cell death, second round of carboplatin treatment: approx. 90%
[10]; COV-362, 48 hours exposure
  decrease in carboplatin sensitivity, resistant versus sensitive cells: > 4 fold
[11]; ES-2, 48 hours exposure
  decrease in carboplatin sensitivity, resistant versus sensitive cells: > 3 fold
